{"source": "patent US8722910B2", "about": "“Diyne compositions” (Evolva AG, priority 2009, dated 2014)", "key": {"Candida albicans": {"system": "Candida albicans", "assay": "In vitro antifungal activity vs. yeasts (MIC/MFC)", "format": "cell-based", "details": "Candida albicans (n = 8)"}, "yeasts": {"system": "yeasts", "assay": "MFC range over yeasts tested", "format": "cell-based, Candida and Malassezia strains", "details": "Table 13 strains", "source_text": "The fungal isolates tested in this study to evaluate the antifungal activity of (Z)-14-([…]-11,13-diynoic acid, 14-([…]-11,13-diynoic acid, (Z)-14-([…]-11,13-diynoic acid, potassium salt and comparators are clinical isolates collected from patients and deposited at the culture collection of the Center for Medical Mycology. Tested isolates included: Candida albicans, C. glabrata, C. guilliermondii, C. krusei, C. lipolytica, C. lusitaniae, C. parapsilosis, C. tropicalis and Malassezia furfur. Dermatophyte strains included Trichophyton rubrum, T. mentagrophytes, T. tonsurans, T. terrestre, Epidermophyton floccosum, Microsporum canis, M. cookie, M. gallinae, M. gypseum, and M. vanbreuseghemii. […] The plates were then streaked with an inoculating loop to remove the cells from the drug source."}, "C. albicans spores": {"system": "C. albicans spores", "assay": "Effect on the germination of C. albicans (MTT)", "format": "cell-based", "details": "drug added after 3 hours"}, "C. krusei": {"system": "C. krusei", "assay": "In vitro antifungal activity vs. yeasts (MIC/MFC)", "format": "cell-based", "details": "Pichia kudriavzevii, C. krusei (n = 1)"}, "[1]": {"system": "Trichophyton mentagrophytes", "assay": "Guinea pig skin infection, topical dosing", "format": "in vivo", "details": "guinea pigs", "procedure": "The efficacy of compound III″ in skin infections of small mammals was shown in guinea pigs infected with Trichophyton mentagrophytes on abrased skin. Compound III″ was administered topically at 0.1% or 1% once daily for seven days. Fungal burden decreased by 82% and 98% respectively, compared to the untreated control (see FIG. 13 showing topical fungal burden as determined by culture positive hair removed from the site of infection)."}, "T. mentagrophytes": {"system": "T. mentagrophytes", "assay": "In vitro antifungal activity vs. dermatophytes (MIC/MFC)", "format": "cell-based", "details": "T. mentagrophytes (n = 15)"}, "Malassezia furfur": {"system": "Malassezia furfur", "assay": "In vitro antifungal activity vs. yeasts (MIC/MFC)", "format": "cell-based", "details": "Malassezia furfur (n = 1)"}, "(1,3)β-Glucan Synthase": {"system": "(1,3)β-Glucan Synthase", "assay": "Inhibition of fungal cell wall synthesis enzymes", "format": "biochemical", "source_text": "(§1) Specific inhibitors of each enzyme served as positive controls (Cilofungin, a β-glucan synthase inhibitor and nikkomycin Z, a chitin synthase inhibitor)."}, "Chitin Synthase": {"system": "Chitin Synthase", "assay": "Inhibition of fungal cell wall synthesis enzymes", "format": "biochemical", "source_text": "as §1"}, "[2]": {"assay": "Solubility in water (incremental addition, 50° C.)", "format": "physicochemical", "details": "10 mg, water added up to 50 μl", "procedure": "Solubility in water was determined. This was carried out by transferring 10 mg of the material into 1.5 ml HPLC vials. Then 10 μl (1 vol) of water was added. The sample was then isothermally held at 50° C. with stirring for 30 mins. The process was continued up to 50 μl by 10 μl increments with heating to 50° C. in between."}, "B. dermatitidis": {"system": "B. dermatitidis", "assay": "Susceptibility of clinical dimorphic fungi (MIC)", "format": "cell-based", "details": "B. dermatitidis (n = 30)"}, "OLE1": {"system": "OLE1", "assay": "OLE1 expression by real time PCR", "format": "cell-based, S. cerevisiae", "procedure": "The expression of OLE1 was determined by real time PCR 10, 60, 120 and 240 min after compound addition (Knechtle, P. and Greve, K., 2009). OLE1 transcript levels were calibrated to the expression of the tubulin gene (TUB1) and normalized to the OLE1 expression at 10 min without compound addition (FIG. 17(a)).\nThe expression of the OLE1 gene was determined by real time PCR 10, 60, 120 and 240 min for the conditions a.-e., as indicated in Table 3 above. OLE1 transcript levels were calibrated to the expression of the tubulin gene (TUB1) and normalized to the OLE1 expression at 10 min without compound addition. See FIG. 17a showing time dependent expressions of OLE1 in response to compound IV″. Conditions a.-e. are listed in Table 3 above, numbers indicate time intervals in minutes. Expressions of OLE1 are given as multiples of the expression at 10 min, condition a. […] 10 μg/ml oleic acid compensated for the OLE1 expression increase caused by 1 μg/ml compound IV alone. Compound IV″ dependent up-regulation of OLE1 expression thus confirms that compound IV″ is acting as an inhibitor of the Ole1 protein. The antagonistic effect of oleic acid found in the susceptibility assays, is reflected mechanistically in this experiment by a down-regulation of the target Ole1 protein through oleic acid."}, "C. glabrata": {"system": "C. glabrata", "assay": "Susceptibility of clinical isolates (MIC, broth dilution)", "format": "cell-based", "procedure": "(§2) The efficacy of compound IV″ was investigated on 563 clinical isolates of 33 human fungal pathogens. […] For species with n≧10, the MIC90 (MIC, minimal inhibitory concentration) is given as ng/ml. For species with n≦10, the MIC range is given as ng/ml. 24 h and 48 h reads are indicated (Table 1).\n(§3) The in vitro efficacy of antifungal compounds is determined in susceptibility assays, which are indicative for the spectrum and potency of a compound. Susceptibilities are reported as minimal inhibitory concentrations (MIC, as ng/ml or μg/ml) required to inhibit growth to a defined degree compared to the drug free control. The MIC90 defines the MIC required to inhibit growth for ≧90% of the strains of a population tested.\n(§4) The MIC90 was calculated for the indicated species."}, "C. lusitaniae": {"system": "C. lusitaniae", "assay": "Susceptibility of clinical isolates (MIC, broth dilution)", "format": "cell-based", "procedure": "as §2, §3, §4"}, "C. dubliniensis": {"system": "C. dubliniensis", "assay": "Susceptibility of clinical isolates (MIC, broth dilution)", "format": "cell-based", "procedure": "as §2, §3, §4"}, "C. parapsilosis": {"system": "C. parapsilosis", "assay": "Susceptibility of clinical isolates (MIC, broth dilution)", "format": "cell-based", "procedure": "as §2, §3, §4"}, "C. tropicalis": {"system": "C. tropicalis", "assay": "Susceptibility of clinical isolates (MIC, broth dilution)", "format": "cell-based", "procedure": "as §2, §3, §4"}}}
{"smiles": "O=C(O)CCCCCCC/C=C\\C#CC#Cc1ccco1", "note": "[Compound III″]", "values": [{"measurement": "MFC", "setting": "Candida albicans", "result": "< 0.06", "unit": "ng/mL"}, {"measurement": "MIC", "setting": "Candida albicans; 90% inhibition endpoint", "result": "< 0.06", "unit": "ng/mL"}, {"measurement": "MFC range against yeasts", "setting": "yeasts", "result": "<0.06 to 32000", "unit": "ng/mL"}, {"measurement": "growth of spores germinated in the absence of drug", "setting": "C. albicans spores", "result": "effectively inhibited the subsequent growth of spores"}, {"measurement": "MFC", "setting": "C. krusei", "result": 1, "unit": "ng/mL"}, {"measurement": "MIC", "setting": "C. krusei; 90% inhibition endpoint", "result": 0.5, "unit": "ng/mL"}, {"measurement": "decrease of fungal burden (culture positive hair)", "setting": "[1]; topically 0.1% once daily for seven days", "result": 82, "unit": "%"}, {"measurement": "decrease of fungal burden (culture positive hair)", "setting": "[1]; topically 1% once daily for seven days", "result": 98, "unit": "%"}, {"measurement": "MIC90/MIC range 48 h", "setting": "T. mentagrophytes; MIC90, 48 h", "result": "<0.06", "unit": "ng/mL"}, {"measurement": "MIC", "setting": "T. mentagrophytes; Trichophyton mentagrophytes, 96 h, 35° C., 4 days", "result": "< 0.06", "unit": "ng/mL"}, {"measurement": "MFC", "setting": "T. mentagrophytes; Trichophyton mentagrophytes", "result": 0.1, "unit": "ng/mL"}, {"measurement": "MFC", "setting": "Malassezia furfur", "result": "< 0.06", "unit": "ng/mL"}, {"measurement": "MIC", "setting": "Malassezia furfur; 90% inhibition endpoint, read-out: MIC", "result": "< 0.06", "unit": "ng/mL"}, {"measurement": "% Inhibition, (1,3)β-Glucan Synthase", "setting": "(1,3)β-Glucan Synthase; 10 μg/ml", "result": 0, "unit": "%"}, {"measurement": "% Inhibition, (1,3)β-Glucan Synthase", "setting": "(1,3)β-Glucan Synthase; 100 μg/ml", "result": 73, "unit": "%"}, {"measurement": "% Inhibition, (1,3)β-Glucan Synthase", "setting": "(1,3)β-Glucan Synthase; 400 μg/ml", "result": 90, "unit": "%"}, {"measurement": "% Inhibition, Chitin Synthase", "setting": "Chitin Synthase; 10 μg/ml", "result": 16, "unit": "%"}, {"measurement": "% Inhibition, Chitin Synthase", "setting": "Chitin Synthase; 100 μg/ml", "result": 85, "unit": "%"}, {"measurement": "% Inhibition, Chitin Synthase", "setting": "Chitin Synthase; 500 μg/ml", "result": 97, "unit": "%"}, {"measurement": "concentrations at which the enzymes were inhibited", "setting": "Chitin Synthase; chitin synthase and β-glucan synthase", "result": "> 100", "unit": "µg/mL"}, {"measurement": "solubility in water", "setting": "[2]", "result": "still did not dissolve"}]}
{"smiles": "O=C([O-])CCCCCCC/C=C\\C#CC#Cc1ccco1.[K+]", "note": "[Compound IV″, potassium (Z)-14-(furan-2-yl)tetradeca-9-en-11,13-diynoate]", "values": [{"measurement": "MIC90/MIC range 48 h", "setting": "B. dermatitidis; MIC90, 48 h", "result": 30, "unit": "ng/mL"}, {"measurement": "MIC90", "setting": "B. dermatitidis; Blastomyces dermatitidis, CLSI M38-A2, 50% growth reduction, MIC read at 96 h", "result": 30, "unit": "ng/mL"}, {"measurement": "increase of the expression level of OLE1", "setting": "OLE1; 1 μg/ml, 10-240 min", "result": "3-5 fold"}, {"measurement": "increase of the expression level of OLE1", "setting": "OLE1; 1 μg/ml, at 120 min", "result": 4.9, "unit": "fold"}, {"measurement": "increase of the expression level of OLE1", "setting": "OLE1; 10 μg/ml, 10-240 min", "result": "7-19 fold"}, {"measurement": "increase of the expression level of OLE1", "setting": "OLE1; 10 μg/ml, at 120 min", "result": 18.7, "unit": "fold"}, {"measurement": "MIC90/MIC range 48 h", "setting": "C. glabrata; C. glabrata (n = 25), MIC90, 48 h", "result": 20, "unit": "ng/mL"}, {"measurement": "MIC90", "setting": "C. glabrata; Nakaseomyces glabratus, 24 h", "result": 20, "unit": "ng/mL"}, {"measurement": "MIC90/MIC range 48 h", "setting": "C. lusitaniae; C. lusitaniae (n = 24), MIC90, 48 h", "result": 128, "unit": "ng/mL"}, {"measurement": "MIC90", "setting": "C. lusitaniae; Clavispora lusitaniae, 24 h", "result": 128, "unit": "ng/mL"}, {"measurement": "MIC90/MIC range 48 h", "setting": "C. dubliniensis; C. dubliniensis (n = 25), MIC90, 48 h", "result": 2.5, "unit": "ng/mL"}, {"measurement": "MIC90", "setting": "C. dubliniensis; Candida dubliniensis, 24 h", "result": 2.5, "unit": "ng/mL"}, {"measurement": "MIC90/MIC range 48 h", "setting": "C. parapsilosis; C. parapsilosis (n = 37), MIC90, 48 h", "result": 1024, "unit": "ng/mL"}, {"measurement": "MIC90", "setting": "C. parapsilosis; Lodderomyces parapsilosis, 24 h", "result": 1020, "unit": "ng/mL"}, {"measurement": "MIC50", "setting": "C. parapsilosis; Lodderomyces parapsilosis, 24 h, read-out: calculated MIC50", "result": 128, "unit": "ng/mL"}, {"measurement": "MIC90/MIC range 48 h", "setting": "C. tropicalis; C. tropicalis (n = 35), MIC90, 48 h", "result": 5, "unit": "ng/mL"}, {"measurement": "MIC90", "setting": "C. tropicalis; Candida tropicalis, 24 h", "result": 5, "unit": "ng/mL"}]}
